Results on seven compounds are retold here after patent US12421253B2 (Mirati Therapeutics, Inc., priority 2020, dated 2025).

The target of one test is T1, KRas^G12V (Homo sapiens, UniProt P01116, G12V).
T1 construct: […]; biotin (biotinylated); purchased Accelegan Inc
The test is described as follows: KRas binding assay (TR-FRET displacement of Cy5 labelled tracer).

The target in a further test is KRas^Q61H (Homo sapiens, UniProt P01116, Q61H). Nature of the test: biochemical.
The target in the next test is KRas^G12C (Homo sapiens, UniProt P01116, G12C). Nature of the test: biochemical.
Chain of KRas^G12C (P01116 1-169 isoform P01116-2 G12C): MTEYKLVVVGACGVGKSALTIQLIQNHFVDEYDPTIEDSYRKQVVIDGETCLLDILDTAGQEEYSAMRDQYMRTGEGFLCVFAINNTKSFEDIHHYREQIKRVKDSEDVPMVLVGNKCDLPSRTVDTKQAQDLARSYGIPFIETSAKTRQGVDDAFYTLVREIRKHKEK
For another test, the system named is MKN1 cells, pERK. Nature of the test: Inhibition of KRas phosphorylation of ERK (Cisbio HTRF Advanced pERK assay). As to conditions: Homo sapiens, MKN-1, 3 h, read-out: Inhibition (HTRF IC50 nM) of KRas-mediated Phosphorylation of ERK, MKN1. It is filed as cell-based. The gist of the method:
(§1)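 pERK measured by HTRF in lysates from cells treated 3 h with compound, 10 uM top, 3-fold steps, 10 doses, 0.8% DMSO final. Cells (6,000/well, RPMI 10% FBS) had been plated overnight at 37 °C; 0.2 uM trametinib defined minimum signal; antibody detection 2 h at room temperature.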

The next test has as its system PSN1 cells, pERK. Described as above. Format: cell-based. As to conditions: Homo sapiens, PSN1, 3 h, read-out: Inhibition (HTRF IC50 nM) of KRas-mediated Phosphorylation of ERK, PSN1. Put shortly:
as §1

In another test the target is T2, KRas^G12S (Homo sapiens, UniProt P01116, G12S).
T2 construct: […]; biotin (biotinylated); purchased Accelegan Inc
T2 sequence (P01116 1-169 isoform P01116-2 G12S): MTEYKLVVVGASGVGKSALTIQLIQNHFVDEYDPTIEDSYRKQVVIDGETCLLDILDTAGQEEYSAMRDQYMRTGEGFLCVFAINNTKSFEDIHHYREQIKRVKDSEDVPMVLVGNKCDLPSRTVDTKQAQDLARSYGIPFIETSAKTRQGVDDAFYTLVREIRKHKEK
Nature of the test: KRas binding assay (TR-FRET displacement of Cy5 labelled tracer).

Another test concerns the target T3, KRas^G12A (Homo sapiens, UniProt P01116, G12A).
T3 construct: […]; biotin (biotinylated); purchased Accelegan Inc
The description is as above.

Another test concerns the target T4, KRas^G12D (Homo sapiens, UniProt P01116, G12D).
T4 construct: […]; biotin (biotinylated); purchased Accelegan Inc
The test is described as above.

Another test concerns the target T5, KRas^G12R (Homo sapiens, UniProt P01116, G12R).
T5 construct: […]; biotin (biotinylated); purchased Accelegan Inc
Described as above.

Test [1] concerns NCI-H727 (G12V) cells, phospho-ERK. Nature of the test: Inhibition of KRas-mediated phosphorylation of ERK (phospho-ERK/GAPDH antibody detection, LI-COR). Format: cell-based. Particulars: Homo sapiens, 3 hours. As to the method:
(§2) AsPC-1 (G12D, ATCC CRL-1682), A549 (G12S, ATCC CCL-185), HCT116 (G13D, ATCC CCL-247) cells were grown in DMEM medium supplemented with 10% fetal bovine serum and Penicillin/Streptomycin. NCI-H358 (G12C, ATCC CRL-5807), NCI-H460 (Q61H, ATCC HTB-117), NCI-H727 (G12V, ATCC CRL-5815), MKN1 (WTdep, JCRB JCRB0252), PSN-1 (G12R, ATCC CRM-CRL-3211) cells were grown in RPMI medium supplemented with 10% fetal bovine serum, 10 mM HEPES, 10 mM Sodium Pyruvate, and Penicillin/Streptomycin. Cells were plated in black well clear bottom tissue culture treated 96 well plates (Corning, 3904) at a density of 20,000 cells/well and allowed to attach for 12-14 hours. Diluted compounds were then added in a final concentration of 0.5% DMSO. After 3 hours, 50 μL of 4.0% formaldehyde was added and the plates incubated at room temperature for 20 minutes. The plates were then dumped and permeabilized with 150 μL of ice cold 100% methanol for 10 minutes. Non-specific antibody binding to the plates was blocked using 100 μL Odyssey blocking buffer (LI-COR Biosciences, 927-60010) for 1 hour at room temperature.
(§3) The amount of phospho-ERK was determined using an antibody specific for the phosphorylated form of ERK and compared to the amount of GAPDH. Primary antibodies used for the detection were added as follows: Phospho-ERK (Cell Signaling CS-9101) diluted 1:500 and GAPDH (Millipore MAB374) diluted 1:5000 in Odyssey blocking buffer+0.05% Tween 20. The plates were incubated overnight at 4 C. The plates were washed 3× with 150 uL PBS+0.1% Tween 20.
(§4) Secondary antibodies used to visualize primary antibodies were added as follows: Goat Anti-Rabbit-800 (LI-COR, 926-32211) and Goat Anti-Mouse-680 (LI-COR, 926-68070) diluted 1:800 both in Odyssey blocking buffer+0.05% Tween 20 and were incubated for 1 hour at room temperature. The plates were washed 3× with 150 uL PBS+[…]. Plates were imaged dry on a Li—COR Odyssey CLX plate reader.
(§5) The phospho-ERK (Thr202/Tyr204) signal was normalized to the GAPDH signal for each well and percent of DMSO control values were calculated. IC50 values were generated using a 4-parameter fit of the dose response curve.

For test [2], the system named is NCI-H460 (Q61H) cells, phospho-ERK. The description is as above. Format: cell-based. As to conditions: Homo sapiens, 3 hours. As to the method: as §2, §3, §4, §5
Test [3] deals with AsPC-1 (G12D) cells, phospho-ERK. The test is described as above. It is filed as cell-based. As to conditions: Homo sapiens, ASPC1, 3 hours. As to the method:
as §2, §3, §4, §5

In a further test the target is KRas^G13D (Homo sapiens, UniProt P01116, G13D). The test is described as follows: biochemical.
Chain of KRas^G13D (P01116 1-169 isoform P01116-2 G13D): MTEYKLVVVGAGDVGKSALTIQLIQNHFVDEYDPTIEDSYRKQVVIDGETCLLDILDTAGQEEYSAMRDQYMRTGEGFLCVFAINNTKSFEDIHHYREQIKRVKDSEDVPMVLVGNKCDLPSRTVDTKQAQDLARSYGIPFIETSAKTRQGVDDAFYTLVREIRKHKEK
The next test has as its target T6, KRas^WT (Homo sapiens, UniProt P01116).
T6 construct: […]; biotin (biotinylated); purchased Accelegan Inc
Nature of the test: KRas binding assay (TR-FRET displacement of Cy5 labelled tracer).

The next test deals with H727 cells, pERK. The test is described as follows: Inhibition of KRas phosphorylation of ERK (Cisbio HTRF Advanced pERK assay). It is filed as cell-based. Particulars: Homo sapiens, NCI-H727, 3 h, read-out: Inhibition (HTRF IC50 nM) of KRas-mediated Phosphorylation of ERK, H727. Put shortly:
as §1

The subject of a further test is HCT116 cells, pERK. The description is as above. It is filed as cell-based. As to conditions: Homo sapiens, HCT-116, 3 hrs, read-out: Inhibition (HTRF IC50 nM) of KRas-mediated Phosphorylation of ERK, HCT116. Put shortly:
as §1

In the next test the test system is ASPC1 cells, pERK. The description is as above. Particulars: Homo sapiens, ASPC1, 3 h, AsPC-1 cells, read-out: Inhibition (HTRF IC50 nM) of KRas-mediated Phosphorylation of ERK, AsPC-1. It is filed as cell-based. Put shortly:
as §1

A further test deals with A549 cells, pERK. Described as above. Format: cell-based. Particulars: Homo sapiens, 3 hrs, read-out: Inhibition (HTRF IC50 nM) of KRas-mediated Phosphorylation of ERK, A549. Put shortly: as §1
Another test relates to H460 cells, pERK. Described as above. It is filed as cell-based. Particulars: Homo sapiens, NCI-H460, 3 hrs, read-out: Inhibition (HTRF IC50 nM) of KRas-mediated Phosphorylation of ERK, H460. The gist of the method:
as §1

T4 sequence (P01116 1-169 isoform P01116-2 G12D): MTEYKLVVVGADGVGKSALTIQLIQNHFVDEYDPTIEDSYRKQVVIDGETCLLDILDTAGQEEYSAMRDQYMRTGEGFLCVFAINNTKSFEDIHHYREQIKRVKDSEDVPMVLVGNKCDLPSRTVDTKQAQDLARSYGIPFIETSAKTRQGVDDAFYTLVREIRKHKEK
T1 sequence (P01116 1-169 isoform P01116-2 G12V): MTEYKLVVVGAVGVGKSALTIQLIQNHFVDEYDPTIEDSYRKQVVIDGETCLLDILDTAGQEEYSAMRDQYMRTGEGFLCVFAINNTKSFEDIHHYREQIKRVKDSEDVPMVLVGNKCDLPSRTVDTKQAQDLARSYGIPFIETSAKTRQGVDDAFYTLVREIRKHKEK
T5 sequence (P01116 1-169 isoform P01116-2 G12R): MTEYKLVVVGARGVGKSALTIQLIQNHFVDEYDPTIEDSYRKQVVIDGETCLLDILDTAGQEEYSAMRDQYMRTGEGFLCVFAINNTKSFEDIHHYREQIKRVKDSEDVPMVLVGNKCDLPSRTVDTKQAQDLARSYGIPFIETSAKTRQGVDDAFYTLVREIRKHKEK
T3 sequence (P01116 1-169 isoform P01116-2 G12A): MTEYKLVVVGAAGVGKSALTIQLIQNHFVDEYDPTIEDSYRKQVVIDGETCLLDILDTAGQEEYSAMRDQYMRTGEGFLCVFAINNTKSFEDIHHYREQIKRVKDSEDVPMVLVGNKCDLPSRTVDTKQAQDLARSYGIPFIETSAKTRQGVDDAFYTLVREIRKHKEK
T6 sequence (P01116 1-169 isoform P01116-2): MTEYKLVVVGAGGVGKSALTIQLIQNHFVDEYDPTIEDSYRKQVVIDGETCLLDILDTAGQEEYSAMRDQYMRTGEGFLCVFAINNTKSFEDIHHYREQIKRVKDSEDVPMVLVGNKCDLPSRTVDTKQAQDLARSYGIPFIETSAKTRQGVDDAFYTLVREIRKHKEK
Chain of KRas^Q61H (P01116 1-169 isoform P01116-2 Q61H): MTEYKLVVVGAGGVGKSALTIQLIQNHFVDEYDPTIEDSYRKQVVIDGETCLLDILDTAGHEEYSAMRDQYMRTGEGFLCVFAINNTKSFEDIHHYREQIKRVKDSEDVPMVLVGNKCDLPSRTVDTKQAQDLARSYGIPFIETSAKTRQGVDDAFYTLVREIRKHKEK
Procedure for KRas^G12A: (§6) The ability of a compound to bind to KRas was measured using a TR-FRET displacement assay. […] After a 60-minute incubation at room temperature, the reaction was measured using a BMG LABTECH CLARIO star Plus via TR-FRET. […] The POC values were fit to a 4-parameter IC50 equation and the IC50 value reported.
Procedure for KRas^G12C: as §6
Procedure for KRas^G12D: as §6
Procedure for KRas^G12R: as §6
Procedure for KRas^G12S: as §6
Procedure for KRas^G12V: as §6
Procedure for KRas^G13D: as §6
Procedure for KRas^Q61H: as §6
Procedure for KRas^WT: as §6

Take `CCc1c(F)ccc2cc(O)cc(N3CCc4c(nc(OC[C@@]56CCCN5C[C@H](F)C6)nc4N4CCCC(c5ncn[nH]5)C4)C3)c12` (stereo partly drawn) [Example 19, 4-(4-(3-(1H-1,2,4-triazol-5-yl)piperidin-1-yl)-2-(((2R,7aS)-2-fluorotetrahydro-1H-pyrrolizin-7a(5H)-yl)methoxy)-5,8-dihydropyrido[3,4-d]pyrimidin-7(6H)-yl)-5-ethyl-6-fluoronaphthalen-2-ol]: the half-maximal inhibitory concentration (IC50) is 6 nM on KRas^G12V; 9 nM against KRas^Q61H; 5 nM against KRas^G12C; 389 nM in the test with MKN1 cells, pERK; at least 10000 nM in the test with PSN1 cells, pERK; 9 nM on KRas^G12S. The half-inhibitory concentration (IC50) at KRas^G12A amounted to 4 nM; at KRas^G12D, 26 nM; at KRas^G12R, 4 nM; in test [1], 2930 nM; in test [2], 1290 nM; in test [3], 2680 nM. Moreover, the results for the IC50 against KRas^G13D and on KRas^WT were 11 nM and 8 nM, respectively.
Consider `CCc1c(F)ccc2cc(O)cc(N3CCc4c(nc(OC[C@@]56CCCN5C[C@H](F)C6)nc4NCc4c[nH]c5ncccc45)C3)c12` [Example 23, 4-(4-(((1H-pyrrolo[2,3-b]pyridin-3-yl)methyl)amino)-2-(((2R,7aS)-2-fluorohexahydro-1H-pyrrolizin-7a-yl)methoxy)-5,6-dihydropyrido[3,4-d]pyrimidin-7(8H)-yl)-5-ethyl-6-fluoronaphthalen-2-ol], for which the IC50 at KRas^G12V is 5 nM; at KRas^Q61H, 38 nM; on KRas^G12C it was 7 nM; in the test with MKN1 cells, pERK, 53 nM; in the test with PSN1 cells, pERK it was at least 10000 nM; at KRas^G12S it was 12 nM. Moreover, the half-maximal inhibitory concentration (IC50) was found to be 9 nM at KRas^G12A; 69 nM at KRas^G12D; 4 nM on KRas^G12R; 2420 nM in test [1]; 1770 nM in test [2]; 3850 nM in [3]. In addition, the IC50 against KRas^G13D is 42 nM; at KRas^WT, 36 nM.
With `CCc1c(F)ccc2cc(O)cc(N3CCc4c(nc(OC[C@@]56CCCN5C[C@H](F)C6)nc4N4CCOCC(n5cccn5)C4)C3)c12` (stereo partly drawn) [Example 25, 4-(4-(6-(1H-pyrazol-1-yl)-1,4-oxazepan-4-yl)-2-(((2R,7aS)-2-fluorohexahydro-1H-pyrrolizin-7a-yl)methoxy)-5,6-dihydropyrido[3,4-d]pyrimidin-7(8H)-yl)-5-ethyl-6-fluoronaphthalen-2-ol], the IC50 at KRas^G12V worked out at 3 nM; with H727 cells, pERK it was 767 nM; in the test with MKN1 cells, pERK it was 51 nM; with PSN1 cells, pERK it was 8320 nM; with HCT116 cells, pERK, 521 nM; in the test on ASPC1 cells, pERK, 180 nM. For the same compound, the IC50 was 3 nM on KRas^G12D; 4 nM on KRas^G12R; 540 nM in test [1]; 171 nM in test [2]; 448 nM in test [3].
As for `CCc1c(F)ccc2cc(O)cc(N3CCc4c(nc(OC[C@@]56CCCN5C[C@H](F)C6)nc4N4CCOCC(O)C4)C3)c12` (stereo partly drawn) [Example 29, 4-(7-(8-ethyl-7-fluoro-3-hydroxynaphthalen-1-yl)-2-(((2R,7aS)-2-fluorohexahydro-1H-pyrrolizin-7a-yl)methoxy)-5,6,7,8-tetrahydropyrido[3,4-d]pyrimidin-4-yl)-1,4-oxazepan-6-ol], the IC50 is at most 2 nM at KRas^G12V; 906 nM with H727 cells, pERK; 20 nM in the test on MKN1 cells, pERK; 5810 nM with PSN1 cells, pERK; 1310 nM in the test on HCT116 cells, pERK; 318 nM with ASPC1 cells, pERK. The concentration for half-maximal inhibition (IC50) on KRas^G12D is at most 2 nM; at KRas^G12R, at most 2 nM; in [1], 542 nM; in test [2], 285 nM; in [3], 509 nM.
Turning to `CCc1c(F)ccc2cc(O)cc(N3CCc4c(nc(OC[C@@]56CCCN5C[C@H](F)C6)nc4N4CCCCCC(S(C)(=O)=O)C4)C3)c12` (stereo partly drawn) [Example 36, 5-ethyl-6-fluoro-4-(2-(((2R,7aS)-2-fluorotetrahydro-1H-pyrrolizin-7a(5H)-yl)methoxy)-4-(3-(methylsulfonyl)azocan-1-yl)-5,8-dihydropyrido[3,4-d]pyrimidin-7(6H)-yl)naphthalen-2-ol], the IC50 on KRas^G12V was at most 2 nM; in the test on MKN1 cells, pERK, 37 nM; in the test on PSN1 cells, pERK it was at least 10000 nM; at KRas^G12D, 5 nM; at KRas^G12R, 5 nM; in test [1] it was 1730 nM. Moreover, the IC50 in [2] was found to be 731 nM; in [3] it was 1760 nM.
`CCc1c(F)ccc2cc(O)cc(N3CCc4c(nc(OC[C@@]56CCCN5C[C@H](F)C6)nc4N4CCCC(n5cccn5)C4)C3)c12` (stereo partly drawn) [Example 67, 4-(4-(3-(1H-pyrazol-1-yl)piperidin-1-yl)-2-(((2R,7aS)-2-fluorohexahydro-1H-pyrrolizin-7a-yl)methoxy)-5,6-dihydropyrido[3,4-d]pyrimidin-7(8H)-yl)-5-ethyl-6-fluoronaphthalen-2-ol]: the IC50 was 7 nM at KRas^G12V; 112 nM in the test with MKN1 cells, pERK; at least 10000 nM with PSN1 cells, pERK; 11 nM on KRas^G12D; at most 2 nM at KRas^G12R; 876 nM in test [1]. Moreover, the results for the concentration for half-maximal inhibition (IC50) in test [2] and in [3] were 225 nM and 1570 nM, respectively.
In the case of `O=C1NC(=O)C2(CCCN(c3nc(OC[C@@]45CCCN4C[C@H](F)C5)nc4c3CCN(c3cc(O)cc5ccc(F)c(Cl)c35)C4)C2)N1` (stereo partly drawn) [Example 69, 7-(7-(8-chloro-7-fluoro-3-hydroxynaphthalen-1-yl)-2-(((2R,7aS)-2-fluorohexahydro-1H-pyrrolizin-7a-yl)methoxy)-5,6,7,8-tetrahydropyrido[3,4-d]pyrimidin-4-yl)-1,3,7-triazaspiro[4.5]decane-2,4-dione], the IC50 was 52 nM on KRas^G12V; 59 nM in the test with A549 cells, pERK; 194 nM in the test on H727 cells, pERK; 41 nM in the test with MKN1 cells, pERK; 578 nM with PSN1 cells, pERK; 164 nM with HCT116 cells, pERK. Moreover, the IC50 with ASPC1 cells, pERK was 122 nM; in the test with H460 cells, pERK, 68 nM; at KRas^G12D it was at most 2 nM; at KRas^G12R it was at most 2 nM.
